Converted amounts (≈) assume the structure as drawn. Read-outs that look alike come from different tables or passages of the source.
Columns and labels:
[1] = biological target: 5-HT1A, 5-HT1B, 5-HT1D, 5-HT1E, 5-HT2A, 5-HT2B, 5-HT2C, 5-HT3, 5-HT4, 5-HT5A, and 5-HT6; assay: Off-target assessment at other 5-HT receptors (PDSP); type: binding; conditions: 1B, 1D, 1E, 2A, 2B, 2C, 3, 4, 5A, 6
Description: In vitro assessments of MC-170073, MC-20078, and MC-230079 activity at the following targets were determined using the assay systems available through the Psychoactive Drug Screening Program (PDSP). Detailed protocols for each assay are available at https://pdsp.unc.edu/pdspweb/?site=assays. Receptors 5-HT1A, 5-HT1B, 5-HT1D, 5-HT1E, 5-HT2A, 5-HT2B, 5-HT2C, 5-HT3, 5-HT5A, 5-HT6, 5-HT7, α1A, α1B, α1D, α2A, α2B, α2C, benzodiazepine, β1, β2, β3, GABA-A, H1, H2, H3, H4, M1, M2, M3, M4, M5, δ-opioid, κ-opioid, and µ-opioid and transporters dopamine, norepinephrine, and serotonin were evaluated.

[2] = Aqueous solubility (pH 7.4) assay, Millipore MultiScreen filter system; type: physicochemical; conditions: read-out: Sol (aqueous solubility)
Description: Compounds were assessed for their solubility at pH 7.4 using the commercially available Millipore MultiScreen Solubility filter system (Millipore, Billerica, MA). Analysis was performed by liquid chromatography-tandem mass spectrometry (LC-MS/MS).

[3] = Microsomal stability assay, human liver microsomes; type: in vitro ADME; conditions: 37°C, NADPH regenerating system, read-out: T1/2 HLM
Description: Test compounds were assessed for microsomal stability by incubating at 37°C in the presence of mouse or human liver microsomes and an NADPH regenerating system as described by Yang et al. ([16]). Microsomal protein content was adjusted to ensure accurate rates of substrate consumption. Analysis was performed by LC-MS/MS analysis.

[4] = Mouse in vivo pharmacokinetic studies; parameters: species or system C57BL/6 male mice; conditions: for bioavailability / AUC / Cmax / Tmax / clearance / half-life: male; for bioavailability: C57BL/6, mouse, plasma, oral, read-out: %F (oral bioavailability); for AUC / Cmax / Tmax / clearance / half-life: C57BL/6, plasma
Description: Adult C57BL/6 male mice (2–4 mo old, body weight ranging from 20 to 25 g, Charles River Laboratories) were maintained under controlled temperature (23 ± 1°C) and lighting (lights on 6:00 AM–6:00 PM) with food and water provided ad libitum. Pharmacokinetic studies were performed either via intravenous bolus infusion or through oral gavage. Mice were administered each compound intravenously by tail vein injection (1 mg/kg) or orally through gavage (5 mg/kg). Serial blood samples were collected at 5, 15, and 30 min and 1, 2, 4, 8, and 24 h after intravenous administration, and at 15, 30 min, and 1, 2, 4, 8, and 24 h after oral gavage administration. All blood samples were centrifuged at 1,500 g for 5 min. Pharmacokinetic study procedures were approved by Temple University’s Institutional Animal Care and Usage Committee and were in accordance with National Institutes of Health (NIH) guidelines. For all in vivo efficacy studies, experiments were approved by the animal ethics committee of McMaster University and conducted under Canadian guidelines for animal research.
Plasma concentrations were determined using an LC-MS/MS method. Briefly, 100-µL acetonitrile with an internal standard solution (Diltiazem, 0.1 μg/mL) was added to 50-µL plasma or tissue homogenate. After being vortexed for 1 min, the mixture was centrifuged at 3,000 g for 5 min. LC-MS/MS analysis was carried out using a high-performance liquid chromatography system consisting of an Agilent 1100 system interfaced to an API4000 SCIEX triple-quadrupole tandem mass spectrometer (Applied Biosystems/MDS Sciex, Foster City, CA). MC-170073, MC-230078, MC-230079, and the internal standard were separated by using a Phenomenex (Torrance, CA) C18 column (2.0 × 50 mm). The mobile phase consisted of solvent A (0.1% formic acid in water) and solvent B (0.1% formic acid in acetonitrile). A linear gradient of solvent B from 5 to 95% was used. The detection and quantification of analytes were performed with the m/z transition 347/191 for MC-170073, MC-230078, and MC-230079, and m/z 415/178 for diltiazem.

[5] = Administration of antagonist in the absence of DSS; type: in vivo, mice; conditions: Supplemental Fig. S2
[6] = pH 7.4, aqueous buffer, kinetic from dmso stock
[7] = 5 mg/kg, 5 mg/kg oral vs 1 mg/kg IV

| SMILES | Ki [1] | solubility [2, 6] | solubility [2] | half-life [3] | %F (oral bioavailability) ([4]; 5 mg/kg oral vs 1 mg/kg IV) | bioavailability [4, 7] | AUC ([4]; IV, 1 mg/kg) | Cmax ([4]; IV, 1 mg/kg) | Tmax ([4]; IV, 1 mg/kg) | clearance ([4]; IV, 1 mg/kg) | half-life ([4]; IV, 1 mg/kg) | AUC ([4]; oral gavage, 5 mg/kg) | Cmax ([4]; oral gavage, 5 mg/kg) | Tmax ([4]; oral gavage, 5 mg/kg) | half-life ([4]; oral gavage, 5 mg/kg) | CL ([4]; oral gavage, 5 mg/kg) | effect on body weight change, histology, or proinflammatory cytokine production [5] |
| --- | --- | --- | --- | --- | --- | --- | --- | --- | --- | --- | --- | --- | --- | --- | --- | --- | --- |
| CCC1(CC)CC(CCN2CCN(c3ccc(O)cc3)CC2)OC1=O (centres unmarked) [MC-170073] | > 10 µM | 200 µM (≈ 69.3 µg/mL) | 168 µM (≈ 58.2 µg/mL) | > 1 h | 17.5% | 17% | 142 ng·h/mL | 81 ng/mL | 0.25 h | 2.08 mL/min | 4.4 h | 124 ng·h/mL | 49 ng/mL | 0.25 h | 3.4 h | 0.73 L/h | no significant effect |
| CCC1(CC)C[C@@H](CCN2CCN(c3ccc(O)cc3)CC2)OC1=O [MC-230078] | > 10 µM | 200 µM (≈ 69.3 µg/mL) | – | 1 h | – | 13.7% | 277 ng·h/mL | 527 ng/mL | 0.083 h | 1.4 mL/min | 3.97 h | 190 ng·h/mL | 123 ng/mL | 0.5 h | 3.78 h | 0.511 L/h | no significant effect |

Source: PMC11550998, “Novel 5-HT7 receptor antagonists modulate intestinal immune responses and reduce severity of colitis” (American Journal of Physiology - Gastrointestinal and Liver …, 2024)
